One experiment relates to 34931 HGSOC PDX. Description: HGSOC post-chemo PDX model 34931. The experiment is classed as in vivo, NSG mice. Particulars: 34931 post-taxane, cisplatin-refractory PDX; 20 mg/kg i.v. twice a week, 6 weeks. As for the experimental part:
(§1) Two to three mm ovarian tumor fragments were subcutaneously engrafted in the left flank of NSG mice and monitored by physical palpation for tumor growth and engraftment. Engrafted tumors were measured twice a week using digital Vernier calipers and maximum tumor diameter + perpendicular tumor length were digitally recorded into the Study Director software (v 3.0/4.0 StudyLog). Tumor volume was calculated automatically (tumor volume (mm^3) = 0.5236 x [larger diameter (mm) x smaller diameter (mm)^2]). Mice were randomized to treatment once their tumor volume reach 180–300 mm^3 and tumor measurements were performed twice a week up to 120 days or when the tumor volume reaches 700 mm^3.
(§2) Time to progressive disease (PD): Defined as the time (in days) from beginning of treatment to an increase in average tumor volume of >20% from the nadir (taken as the smallest average tumor volume recorded since treatment started or 200 mm^3 if nadir was <200 mm^3 as lesions smaller than this are difficult to measure with accuracy). Median time to harvest (TTH): Defined as the time (in days) from the beginning of treatment to day of harvest at 700 mm^3 and the median TTH was calculated and plotted using Kaplan-Meier curves. Based on ref. [27]. […]

Experiment [1] relates to H1437 (non-small cell lung carcinoma) xenograft. Description: H1437 tumor xenograft in nude mice. The class given is in vivo, BALB/c nude mice. To be noted: i.p. three times weekly. The method, then: Tumor cell lines LIM2537, U87MGΔ2–7EGFR or H1437 were collected by trypsinization, counted and injected at 5 × 10^6 cells/ site subcutaneously on both flanks of BALB/c nude mice. Treatment with vehicle control or WEHI-7326 at given dose was initiated after 5 days. Drug or vehicle (100 μl) was injected intraperitoneally three times weekly. Control group and treatment group consisted of 8 mice each. Tumors were measured twice weekly with calipers. Tumor volumes were estimated using the modified ellipsoid formula V = 1/2 (length × width^2). The experiments were terminated when tumors in the control group started ulcerating or exceeded 17 mm in length, in line with the LICR/DoS Animal Ethics Committee guidelines (11/05 A).

A further experiment deals with 134183 HGSOC PDX. Description: HGSOC PDX model 134183. The class given is in vivo, NSG mice. To be noted: 134183 platinum-sensitive PDX; 20 mg/kg i.v. biweekly, 6 weeks. As for the experimental part: as §1, §2
The next experiment has as its system SW480. Description: Cell cycle analysis (G2/M arrest, PI staining, flow cytometry), SW480. The class given is cell-based, human. As for the experimental part:
Fig. 2 Antimitotic activity of WEHI-7326: cancer cell lines and effects on tubulin polymerization. a Dose-dependent antimitotic activity of WEHI-7326, nocodazol and taxol in tumor cell lines SW480 (colorectal) and MDA-MB-231 (breast). Data are presented as percentage of cells in G2/M after overnight incubation with increasing concentrations of inhibitors and PI staining followed by flow cytometry analysis. Mean average of 3 independent experiments ±SEM. b EC50 values (nM) for G2/M arrest on SW480 and MDA-MB-231 cell lines, given as mean average of 3 independent experiments ±SEM. c Western blot analysis of mitotic arrest in SW480 and MDA-MB-231 cells treated with EC50 concentrations of WEHI-7326 or Paclitaxel as marked by expression of phosho-S10 Histone H3 (p-HH3 S10), at different timepoints post treatment. Expression of β-actin provided as loading control. d Cell cycle analysis of LIM1899 cells 72 h post treatment with increasing concentrations of WEHI-7326 as measured by PI staining for DNA content followed by flow cytometry analysis. Sub-G1 represents apoptotic fractions and >4 N cell fractions of mitotic slippage. e Immunofluorescence confocal microscopy of tubulin polymerization in SW480 cells treated by various agents. Cells were incubated for 24 h with control (0.1% DMSO), nocodazole (1 μM), paclitaxel (1 μM), myoseverin B (1 μM) or WEHI-7326 (1 μM). Cells were fixed and stained with β-tubulin antibody (green) and DAPI (DNA; blue) and phalloidin (actin, red). Shown are single confocal sections and enlarged areas (3x) to highlight changes in microtubule network; scale bar = 20 μm. Representative images from 2 independent experiments. f Cellular tubulin polymerization assay in cells: SW480 cells were incubated overnight with paclitaxel, myoseverin B or WEHI-7326, then processed to detect fractions of polymerized (P) and soluble (S) tubulin by western blot analysis. Representative blot of 3 independent experiments. g Tubulin polymerization was assessed in vitro over time using a fluorescence-based tubulin polymerization assay (BK011P). Tubulin was incubated with control (DMSO), paclitaxel (3 μM), nocodazole (15 μM) and WEHI-7326 at indicated concentrations (in DMSO). Polymerization was measured by excitation at 360 nm and emission at 420 nm. Representative graph of 3 independent experiments performed in duplicates. […]
Cells in log growth were supplemented with fresh medium with either vehicle (control) or compound at the stated final concentrations. […] After 1 h incubation at room temperature in the dark, cells were analyzed on a FACScan (Becton and Dickinson) in CellQuest. The percentage of cells in each phase of the cell cycle was determined using ModFit software (Verity, http://www.vsh.com). Early and late apoptotic responses elicited by WEHI-7326 were assessed using Dead Cell Apoptosis Kit (ThermoFisher Scientific) with Annexin V FITC and PI following manufacturer’s instructions. Cells were incubated 24 h with 6-point, 4-fold titration of WEHI-7326, washed twice with cold 1X PBS, resuspended in 1X Annexin Binding Buffer, incubated with FITC Annexin V and PI for 15 mins at RT in the dark and subsequently analyzed by flow cytometry.
For orientation: A flow cytometer gives signals particle by particle.

With `COc1ccc(CNc2nc(NCc3ccc(CN)cc3)nc(NN3CC(=O)NC3=O)n2)cc1` [WEHI-7326], the Tumor response entry in the experiment with 34931 HGSOC PDX is given as “ineffective”. For the same molecule, in experiment [1], the Tumor growth result was “effective in reducing tumor growth”. Further, in the experiment on 134183 HGSOC PDX, the “Median time to harvest (TTH)” value is “lack of improvement” and the “Time to progressive disease (PD)” value is given as 53 days. The EC50 in the experiment with SW480 (Homo sapiens, SW480, read-out: EC50 (G2/M arrest)) was found to be 98 ± 10 nM. For the same molecule, the “G2/M cell cycle arrest” value in the experiment on SW480 (SW480) was “strong G2/M cell cycle arrest”.
